ChEMBL document CHEMBL1201862, “PubChem BioAssay data set” (2004)
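Assay format: 96-well plates, 48-hour exposure. Here, GI50 denotes the concentration required for 50% inhibition of growth.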 Active and inactive are the calls of the source. Cut-off read from the data, not from the text of the source: active = GI50 up to about 1.1 µM and inactive = higher.

Assays:
Assay in all cases: NCI tumour cell line growth inhibition, 48 h
A498 = system: A498
A549 = system: A549
ACHN = system: ACHN
COLO 205 = system: COLO 205
HOP-62 = system: HOP-62
KM12 = system: KM12
Malme-3M = system: Malme-3M
OVCAR-3 = system: OVCAR-3
OVCAR-4 = system: OVCAR-4
SF-539 = system: SF-539
SK-OV-3 = system: SK-OV-3
SN12C = system: SN12C
UACC-257 = system: UACC-257
UO-31 = system: UO-31
HCT-116 = system: HCT-116
RXF 393 = system: RXF 393
SR = system: SR

| Structure (SMILES) | GI50 (A498) | GI50 (A549) | GI50 (ACHN) | GI50 (COLO 205) | GI50 (HOP-62) | GI50 (KM12) | GI50 (Malme-3M) | GI50 (OVCAR-3) | GI50 (OVCAR-4) | GI50 (SF-539) | GI50 (SK-OV-3) | GI50 (SN12C) | GI50 (UACC-257) | GI50 (UO-31) | GI50 (HCT-116) | GI50 (RXF 393) | GI50 (SR) |
| --- | --- | --- | --- | --- | --- | --- | --- | --- | --- | --- | --- | --- | --- | --- | --- | --- | --- |
| CN(CC1NCCCC1O)C12CC3CC(CC(C3)C1)C2 (stereo not given) | > 100 µM (inactive) | > 100 µM (inactive) | > 100 µM (inactive) | > 100 µM (inactive) | > 100 µM (inactive) | > 100 µM (inactive) | > 100 µM (inactive) | > 100 µM (inactive) | > 100 µM (inactive) | > 100 µM (inactive) | > 100 µM (inactive) | > 100 µM (inactive) | > 100 µM (inactive) | > 100 µM (inactive) | – | – | – |
| CCCOP1(=O)C=C(C)C(Cl)=C(C)C1 (stereo not given) | – | 21.6 µM (inactive) | 21.4 µM (inactive) | 11.2 µM (inactive) | 42.4 µM (inactive) | 19.1 µM (inactive) | – | 25.2 µM (inactive) | 26.9 µM (inactive) | 25.7 µM (inactive) | 38.3 µM (inactive) | 20.2 µM (inactive) | 17.7 µM (inactive) | 45.3 µM (inactive) | 18 µM (inactive) | 18 µM (inactive) | 17.9 µM (inactive) |
| NC(=S)N/N=C1\C(=O)N(CCc2ccccc2)C(=O)C1C(=O)NCCc1ccccc1 (stereo not given) | > 100 µM (inactive) | – | > 100 µM (inactive) | > 100 µM (inactive) | > 100 µM (inactive) | > 100 µM (inactive) | > 100 µM (inactive) | > 100 µM (inactive) | > 100 µM (inactive) | > 100 µM (inactive) | > 100 µM (inactive) | > 100 µM (inactive) | > 100 µM (inactive) | > 100 µM (inactive) | > 100 µM (inactive) | > 100 µM (inactive) | – |
| Clc1ccc(C(n2cc(Br)cn2)n2cc(Br)cn2)cc1 | 18.3 µM (inactive) | 14.7 µM (inactive) | 14.5 µM (inactive) | 16.1 µM (inactive) | 17.8 µM (inactive) | 13.5 µM (inactive) | 15.8 µM (inactive) | 14.1 µM (inactive) | 12 µM (inactive) | > 10 µM (inactive) | 35.1 µM (inactive) | 16.8 µM (inactive) | 14.7 µM (inactive) | 0.267 µM (active) | – | 14.5 µM (inactive) | – |
| COC(=O)c1c(N)n[nH]c1N | > 100 µM (inactive) | > 100 µM (inactive) | – | > 100 µM (inactive) | > 100 µM (inactive) | > 100 µM (inactive) | – | > 100 µM (inactive) | > 100 µM (inactive) | > 100 µM (inactive) | > 100 µM (inactive) | > 100 µM (inactive) | > 100 µM (inactive) | > 100 µM (inactive) | > 100 µM (inactive) | > 100 µM (inactive) | > 100 µM (inactive) |
| c1ccc(C(c2ccccc2)c2ccccn2)cc1 | > 100 µM (inactive) | > 100 µM (inactive) | > 100 µM (inactive) | > 100 µM (inactive) | > 100 µM (inactive) | > 100 µM (inactive) | > 100 µM (inactive) | > 100 µM (inactive) | > 100 µM (inactive) | > 100 µM (inactive) | > 100 µM (inactive) | > 100 µM (inactive) | > 100 µM (inactive) | > 100 µM (inactive) | > 100 µM (inactive) | – | – |
| Cc1c2n(c(=O)[nH]c1=O)C1OC(CO)C(N=[N+]=[N-])C1O2 (stereo not given) | > 100 µM (inactive) | > 100 µM (inactive) | > 100 µM (inactive) | > 100 µM (inactive) | > 100 µM (inactive) | > 100 µM (inactive) | – | > 100 µM (inactive) | > 100 µM (inactive) | > 100 µM (inactive) | > 100 µM (inactive) | > 100 µM (inactive) | > 100 µM (inactive) | > 100 µM (inactive) | > 100 µM (inactive) | 28 µM (inactive) | > 100 µM (inactive) |
